Measurements: ChEMBL document CHEMBL1201862, “PubChem BioAssay data set” (2004)
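Briefly, cells in 96-well plates were exposed to five compound concentrations for 48 h, and endpoints were estimated by linear interpolation. GI50: concentration for 50% inhibition of growth.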 Calls of active or inactive are those of the source. Cut-off read from the data, not from the text of the source: active = GI50 up to about 1.1 µM and inactive = higher.

Key:
Experiment in all cases: NCI anticancer screen, dose series, 48 h
HL-60 = system: HL-60
Hs-578T = system: Hs-578T
SW-620 = system: SW-620
DU-145 = system: DU-145
EKVX = system: EKVX
NCI-H226 = system: NCI-H226
K562 = system: K562
786-0 = system: 786-0
UACC-257 = system: UACC-257
IGROV-1 = system: IGROV-1
UO-31 = system: UO-31
PC-3 = system: PC-3
MOLT-4 = system: MOLT-4
Malme-3M = system: Malme-3M
NCI/ADR-RES = system: NCI/ADR-RES
OVCAR-5 = system: OVCAR-5
SF-539 = system: SF-539
OVCAR-4 = system: OVCAR-4
MCF7 = system: MCF7
T47D = system: T47D

Measured: GI50

COc1ccc(N2C(=O)C3c4[nH]c5ccc(C)cc5c4C4CCC(C)CC4C3C2=O)cc1 (stereo unspecified)
inactive: HL-60 > 10 µM | Hs-578T 4.65 µM | SW-620 > 100 µM | DU-145 > 100 µM | EKVX > 100 µM | NCI-H226 > 100 µM | K562 66.7 µM | 786-0 25.7 µM | UACC-257 > 100 µM | IGROV-1 > 100 µM | UO-31 > 100 µM | PC-3 > 100 µM | MOLT-4 67.5 µM | Malme-3M > 100 µM | NCI/ADR-RES 44.7 µM | OVCAR-5 > 100 µM | SF-539 17.7 µM

COc1ccc(C(=O)C(C(=O)CCC(=O)Nc2cccc(Cl)c2)c2ccc(OC)cc2)cc1 (stereo unspecified)
inactive: HL-60 > 100 µM | SW-620 > 100 µM | EKVX > 100 µM | NCI-H226 > 100 µM | K562 > 100 µM | 786-0 > 100 µM | UACC-257 > 100 µM | IGROV-1 > 100 µM | UO-31 > 100 µM | MOLT-4 > 100 µM | OVCAR-4 > 100 µM | Malme-3M > 100 µM | OVCAR-5 9.42 µM | SF-539 > 100 µM

CN(C)c1ccc(/C=C2\C[C@H]3[C@@H]4CC=C5C[C@@H](O)CC[C@]5(C)[C@H]4CC[C@]3(C)C2=O)cc1
inactive: HL-60 > 100 µM | SW-620 30.2 µM | DU-145 44 µM | EKVX 23.6 µM | NCI-H226 20 µM | K562 32.8 µM | 786-0 16.3 µM | UACC-257 19.9 µM | MCF7 30.5 µM | IGROV-1 18 µM | UO-31 4.55 µM | T47D 20.3 µM | PC-3 13.4 µM | MOLT-4 79.3 µM | OVCAR-4 18.1 µM | Malme-3M 19.5 µM | NCI/ADR-RES 19.1 µM | OVCAR-5 17.9 µM | SF-539 9.2 µM

COc1ccc(S(=O)(=O)Nc2ccccc2C(=O)O)cc1
inactive: HL-60 > 100 µM | SW-620 > 100 µM | EKVX > 100 µM | NCI-H226 > 100 µM | K562 > 100 µM | 786-0 > 100 µM | UACC-257 > 100 µM | IGROV-1 > 100 µM | UO-31 > 100 µM | MOLT-4 > 100 µM | OVCAR-4 > 100 µM | Malme-3M > 100 µM | OVCAR-5 > 100 µM | SF-539 > 100 µM

CC(=O)Oc1cc(-c2oc3cc(OC(C)=O)c(C4OC(CO)C(O)C(O)C4O)c(OC(C)=O)c3c(=O)c2O)c(OC(C)=O)cc1O (stereo unspecified)
inactive: HL-60 > 100 µM | Hs-578T > 100 µM | SW-620 > 100 µM | DU-145 > 100 µM | EKVX > 100 µM | NCI-H226 91.8 µM | K562 > 100 µM | 786-0 > 100 µM | UACC-257 > 100 µM | MCF7 > 100 µM | IGROV-1 > 100 µM | UO-31 > 100 µM | PC-3 > 100 µM | MOLT-4 > 100 µM | OVCAR-4 > 100 µM | Malme-3M > 100 µM | NCI/ADR-RES > 100 µM | OVCAR-5 > 100 µM

CC1CCC2CC1NC(=O)CCOCCC(=O)NC2(C)C (stereo unspecified)
inactive: HL-60 > 100 µM | SW-620 > 100 µM | DU-145 > 100 µM | EKVX > 100 µM | K562 > 100 µM | 786-0 > 100 µM | UACC-257 > 100 µM | MCF7 > 100 µM | IGROV-1 > 100 µM | UO-31 > 100 µM | T47D > 100 µM | PC-3 > 100 µM | MOLT-4 > 100 µM | OVCAR-4 > 100 µM | OVCAR-5 > 100 µM | SF-539 > 100 µM

Cc1ccc(-c2cc(-c3ccccc3)c(C#N)c(=O)[nH]2)cc1
inactive: HL-60 > 100 µM | SW-620 > 100 µM | EKVX > 100 µM | NCI-H226 > 100 µM | K562 > 100 µM | 786-0 > 100 µM | UACC-257 > 100 µM | IGROV-1 > 100 µM | UO-31 > 100 µM | MOLT-4 > 100 µM | OVCAR-4 79.1 µM | Malme-3M > 100 µM | OVCAR-5 > 100 µM | SF-539 > 100 µM

N/C(=N\O)N/N=C/c1cccc(F)c1
inactive: HL-60 25.5 µM | SW-620 75.2 µM | EKVX 37.1 µM | NCI-H226 21 µM | K562 19.4 µM | 786-0 30.4 µM | UACC-257 52.4 µM | IGROV-1 47.9 µM | UO-31 28.3 µM | MOLT-4 43.5 µM | OVCAR-4 85.9 µM | Malme-3M 37.3 µM | OVCAR-5 33.7 µM | SF-539 28.9 µM
